The values that follow come from patent US7148191B2, “Antigenic composition” (Intercell AG, priority 2000, dated 2006).

The subject of assay [1] is human monocyte-derived DCs. Kind of assay: In vitro phenotypic maturation of DCs, surface molecules by flow cytometry. Format: cell-based. Particulars: 48 hours; for phenotypic maturation of DCs (overall): each 10 μg/ml, LPS 1 μg/ml as control.
In assay [2] the test system is peptide-specific IFN-γ-producing T cells in peripheral blood. The assay can be described thus: IFN-γ ELISPOT of peripheral blood leukocytes after injection of ovalbumin (OVA) mixtures. The settings on record: Example 12, FIG. 12B; PBLs re-stimulated with OVA257-264-peptide; selected time points after one single injection. The assay is classed as in vivo, mice (C57B1/6). The source says:
To further examine whether the immune response induced by one single injection of OVA protein with oligo-dIC/pR is systemic, the rest of the mice (4 mice/group) was investigated at selected time points after injection for the presence of peptide-specific IFN-γ-producing T cells in peripheral blood using an IFN-γ ELISPOT assay. Results are expressed as the number of spots/1×10^6 cells±SD of duplicates.

Another assay deals with OVA-specific T cells. Kind of assay: IFN-γ ELISPOT of draining lymph node cells after injection of ovalbumin (OVA) mixtures. The settings on record: Example 12, FIG. 12A; OVA 50 μg, oligo-dIC26-mer 5 nmol, pR 100 μg/mouse; footpad; day 4 LN. The assay is classed as in vivo, mice (C57B1/6). As to the method: Experimental Groups (4 Mice Per Group) • 1. OVA257-264-peptide+pIC+pR • 2. OVA257-264-peptide+pIC • 3. OVA257-264-peptide+pR On day 0 mice were injected into each hind footpad with a total volume of 100 μl (50 μl per footpad) containing the above mentioned compounds. Animals were sacrificed 4 days after injection and popliteal lymph nodes were harvested. Single cell suspensions were prepared by mincing lymph nodes through a 70 μm cell strainer. Thereafter, cells were washed twice with DMEM medium (Life Technologies) containing 5% fetal calf serum (FCS, SIGMA Chemicals). Cells were adjusted to 10^7 cells/ml in DMEM/5% FCS. […] This method is a widely used procedure for the quantification of antigen-specific T cells. […] Spots were counted using a Biosys reader (Biosys, Germany). […] The Results are expressed as the number of spots/1×10^6 unseparated cells±SD of triplicates. […]
Experimental Groups (4 Mice Per Group) • 1. […] Results are expressed as the number of spots/1×10^6 cells±SD of triplicates. […] Importantly, the IFN-γ production was detected not only upon the re-stimulation with the whole OVA protein but also with both, MHC class I (OVA257-264)- and II (OVA265-280)-restricted OVA-derived epitopes (FIG. 9).
Experimental Groups (8 Mice Per Group) • 1. […] Results are expressed as the number of spots/1×10^6 cells±SD of triplicates.

The test system of assay [3] is OVA257-264-peptide-specific IFN-γ-producing T cells. Kind of assay: IFN-γ ELISPOT of draining lymph node cells after injection of OVA257-264-peptide mixtures. The assay is classed as in vivo, mice (C57B1/6). Particulars: Example 11; day 4; peptide 300 μg, oligo-dIC26-mer 5 nmol, pR 100 μg/mouse; footpad.
Method: Experimental Groups (4 Mice Per Group) • 1. OVA257-264-peptide+pIC+pR • 2. OVA257-264-peptide+pIC • 3. OVA257-264-peptide+pR On day 0 mice were injected into each hind footpad with a total volume of 100 μl (50 μl per footpad) containing the above mentioned compounds. Animals were sacrificed 4 days after injection and popliteal lymph nodes were harvested. Single cell suspensions were prepared by mincing lymph nodes through a 70 μm cell strainer. Thereafter, cells were washed twice with DMEM medium (Life Technologies) containing 5% fetal calf serum (FCS, SIGMA Chemicals). Cells were adjusted to 10^7 cells/ml in DMEM/5% FCS. IFN-γ ELISPOT assays were carried out in triplicates as described (Miyahira et al., 1995). […] Spots were counted using a Biosys reader (Biosys, Germany). […] The Results are expressed as the number of spots/1×10^6 unseparated cells±SD of triplicates.
Assay [4] concerns peptide-specific IFN-γ-producing T cells in spleen or peripheral blood. Kind of assay: IFN-γ ELISPOT of peripheral blood leukocytes or spleen cells (systemic response) after injection of OVA257-264-peptide mixtures. The assay is classed as in vivo, mice (C57B1/6). The settings on record: Example 11, FIG. 11; selected time points after one single injection. As to the method: To investigate whether the immune response induced by one single injection of peptide with pIC/pR is systemic, the rest of the animals (four per group) was bled from the tail vein at selected time points after injection, peripheral blood leukocytes (PBLs) were isolated, re-stimulated either with the relevant peptide, pIC, pR, ConA (positive control) or medium alone (background) and the number of IFN-γ-secreting T lymphocytes was determined using an ELISPOT assay. Assays were carried out in duplicates. Each spot represents a single IFN-γ-producing T cell. Spots were counted using a Biosys reader (Biosys, Germany). Number of background spots was subtracted from all samples. Results are expressed as the number of spots/1×10^6 cells±SD of duplicates.
To examine whether the immune response induced by one single injection of peptide with oligo-dIC/pR is systemic, the rest of the mice (4 mice/group) was investigated at selected time points after injection for the presence of peptide-specific IFN-γ-producing T cells in spleen or peripheral blood using an IFN-γ ELISPOT assay. Results are expressed as the number of spots/1×10^6 cells±SD of duplicates.

[5] abbreviates: Example 10, FIG. 10, 10 μg/ml, day 6-cultured DCs, vs untreated DCs.

Turning to Poly-L-arginine [pR], in assay [1] (Example 10, FIG. 10), the “phenotypic maturation of DCs (overall)” value is “None of the above described phenotypic changes could be observed”.

Take “OVA: Ovalbumin from chicken egg, grade V, SIGMA Chemicals, A-5503”: the “systemic response (peptide-specific IFN-γ-producing T cells in peripheral blood)” value in assay [2] is on record as “could not be observed”. The “local antigen-specific T cell response in lymph node cells” value in the assay on OVA-specific T cells is listed as “could not be observed”.

Consider “OVA257–264-Peptide (SIINFEKL) [OVA257-264-peptide]”, for which the “local antigen-specific response in draining lymph node cells” value in assay [3] is listed as “could not be observed”. Further, the “systemic response (peptide-specific IFN-γ-producing T cells in spleen or peripheral blood)” value in assay [4] is reported as “could not be observed”.

For Polyinosinic-polycytidylic acid [pIC], in assay [1] (setting [5]), the “expression of CD1a molecules” value is “down-regulation”; the “expression of CD86 and the maturation marker CD83” value is given as “de-novo expression”; the “expression of HLA-DR, -DQ and HLA-I molecules, CD40, CD54, CD80” value is given as “up-regulation”. The “phenotypic maturation of DCs (overall)” value in assay [1] (Example 10, FIG. 10) is on record as “comparable to that induced by LPS”. In addition, the “expression of CD11a, CD11c, CD13, CD25, CD29 and CD50 antigens” value in assay [1] (Example 10, 10 μg/ml, day 6-cultured DCs) is reported as “slight up-regulation”.
